# Patent publication US7074789B2, “Kinase inhibitors” (Amgen Inc., priority 1999, dated 2006)
# What was measured:
# Type in all cases: biochemical
# [1] = molecular target: T1, Lck (Homo sapiens, UniProt P06239); experiment: Kinase inhibition assay (33P transfer), Lck; settings: Table 3; read-out: Lck-1
# T1 construct: Kinases are expressed as either kinase domains or full length constructs; made in house
# In short: (§1)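 Kinase domains or full-length kinases, GST- or His-tagged and expressed in E. coli or baculovirus/High Five cells, transferred 33PO4 from ATP onto plate-bound poly(Glu,Tyr) 4:1 or poly(Arg,Ser) 3:1. After incubation, plates were washed with 0.5% phosphoric acid and counted by liquid scintillation.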
# [2] = molecular target: T2, Lyn (Homo sapiens, UniProt P07948); experiment: Kinase inhibition assay (33P transfer), Lyn; settings: Table 6, Lyn-1 kinase inhibition class
# T2 construct: Kinases are expressed as either kinase domains or full length constructs; made in house
# T2 sequence (P07948 whole entry, species assumed, the tested form may be a part): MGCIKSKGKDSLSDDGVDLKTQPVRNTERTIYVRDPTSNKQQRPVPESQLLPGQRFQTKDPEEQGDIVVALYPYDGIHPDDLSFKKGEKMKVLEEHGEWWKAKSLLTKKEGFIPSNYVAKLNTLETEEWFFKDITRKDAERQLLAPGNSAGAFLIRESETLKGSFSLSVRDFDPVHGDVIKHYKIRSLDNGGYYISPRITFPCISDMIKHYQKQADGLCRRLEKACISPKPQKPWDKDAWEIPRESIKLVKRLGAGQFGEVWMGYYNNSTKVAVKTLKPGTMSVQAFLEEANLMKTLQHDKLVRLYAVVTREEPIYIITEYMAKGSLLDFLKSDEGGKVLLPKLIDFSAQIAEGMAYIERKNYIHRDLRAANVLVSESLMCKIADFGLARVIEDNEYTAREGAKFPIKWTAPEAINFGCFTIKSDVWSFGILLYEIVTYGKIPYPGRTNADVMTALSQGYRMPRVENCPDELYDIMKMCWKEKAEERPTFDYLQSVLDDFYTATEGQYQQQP
# From the text: (§2) The inhibitor compounds described herein are screened in the following manner. Kinases suitable for use in the following protocol to determine kinase activity of the compounds described herein include, -but are not limited to: Lck, Lyn, Src, Fyn, Syk, Zap-70, Itk, Tec, Btk, EGFR, ErbB2, Kdr, Flt-1, Flt-3, Tek, c-Met, InsR, and AKT.
# (§3) Kinases are expressed as either kinase domains or full length constructs fused to glutathione S-transferase (GST) or polyHistidine tagged fusion proteins in either E. colior Baculovirus-High Five expression systems. They are purified to near homogeneity by affinity chromatography essentially as previously described (Lehr et al., 1996; Gish et al., 1995). In some instances, kinases are co-expressed or mixed with purified or partially purified regulatory polypeptides prior to measurement of activity.
# (§4) Kinase activity and inhibition are measured essentially by established protocols (Braunwalder et al., 1996). Briefly, The transfer of ^33PO4 from ATP to the synthetic substrates poly(Glu, Tyr) 4:1 or poly(Arg, Ser) 3:1 attached to the bioactive surface of microtiter plates serves as the basis to evaluate enzyme activity. After an incubation period, the amount of phosphate transferred is measured by first washing the plate with 0.5% phosphoric acid, adding liquid scintillant, and then counting in a liquid scintillation detector. The IC50 is determined by the concentration of compound that causes a 50% reduction in the amount of […] incorporated onto the substrate bound to the plate.
# [3] = molecular target: T3, Src (Homo sapiens, UniProt P12931); experiment: Kinase inhibition assay (33P transfer), Src; settings: Table 6, Src-1 kinase inhibition class
# T3 construct: Kinases are expressed as either kinase domains or full length constructs; made in house
# T3 sequence (P12931 whole entry, species assumed, the tested form may be a part): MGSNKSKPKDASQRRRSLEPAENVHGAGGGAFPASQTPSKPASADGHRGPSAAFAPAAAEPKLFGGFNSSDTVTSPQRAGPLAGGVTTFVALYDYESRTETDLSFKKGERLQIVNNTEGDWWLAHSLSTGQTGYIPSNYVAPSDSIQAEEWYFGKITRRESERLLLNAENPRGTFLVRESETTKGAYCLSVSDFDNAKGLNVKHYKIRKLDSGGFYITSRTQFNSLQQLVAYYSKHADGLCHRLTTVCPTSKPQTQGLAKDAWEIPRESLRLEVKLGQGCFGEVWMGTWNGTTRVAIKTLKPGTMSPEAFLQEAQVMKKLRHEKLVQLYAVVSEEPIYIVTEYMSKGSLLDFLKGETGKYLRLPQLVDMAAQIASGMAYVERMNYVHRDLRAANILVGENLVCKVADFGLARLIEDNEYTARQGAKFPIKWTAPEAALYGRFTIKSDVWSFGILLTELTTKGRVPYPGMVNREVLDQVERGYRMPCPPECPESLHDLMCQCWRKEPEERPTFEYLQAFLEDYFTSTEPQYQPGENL
# From the text: as §2, §3, §4
# [4] = molecular target: T4, Fyn (Homo sapiens, UniProt P06241); experiment: Kinase inhibition assay (33P transfer), Fyn; settings: read-out: Fyn-1
# T4 construct: Kinases are expressed as either kinase domains or full length constructs; made in house
# T4 sequence (P06241 whole entry, species assumed, the tested form may be a part): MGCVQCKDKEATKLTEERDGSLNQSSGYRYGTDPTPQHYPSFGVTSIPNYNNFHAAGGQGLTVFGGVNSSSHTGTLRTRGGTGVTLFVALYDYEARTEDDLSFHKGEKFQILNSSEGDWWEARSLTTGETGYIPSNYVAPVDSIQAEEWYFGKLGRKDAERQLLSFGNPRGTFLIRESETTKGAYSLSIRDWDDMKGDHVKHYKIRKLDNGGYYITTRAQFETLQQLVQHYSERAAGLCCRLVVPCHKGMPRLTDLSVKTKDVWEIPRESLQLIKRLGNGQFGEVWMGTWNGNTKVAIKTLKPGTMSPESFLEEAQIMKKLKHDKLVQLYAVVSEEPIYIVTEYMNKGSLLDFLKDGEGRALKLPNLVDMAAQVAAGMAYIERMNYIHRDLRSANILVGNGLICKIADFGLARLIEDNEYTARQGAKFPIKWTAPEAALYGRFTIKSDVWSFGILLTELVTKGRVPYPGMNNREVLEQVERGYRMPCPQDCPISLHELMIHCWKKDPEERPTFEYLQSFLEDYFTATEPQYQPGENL
# From the text: as §2, §3, §4
# [5] = molecular target: T5, Zap-70 (Homo sapiens, UniProt P43403); experiment: Kinase inhibition assay (33P transfer), Zap-70; settings: Table 3; read-out: Zap-1
# T5 construct: Kinases are expressed as either kinase domains or full length constructs; made in house
# T5 sequence (P43403 1-619): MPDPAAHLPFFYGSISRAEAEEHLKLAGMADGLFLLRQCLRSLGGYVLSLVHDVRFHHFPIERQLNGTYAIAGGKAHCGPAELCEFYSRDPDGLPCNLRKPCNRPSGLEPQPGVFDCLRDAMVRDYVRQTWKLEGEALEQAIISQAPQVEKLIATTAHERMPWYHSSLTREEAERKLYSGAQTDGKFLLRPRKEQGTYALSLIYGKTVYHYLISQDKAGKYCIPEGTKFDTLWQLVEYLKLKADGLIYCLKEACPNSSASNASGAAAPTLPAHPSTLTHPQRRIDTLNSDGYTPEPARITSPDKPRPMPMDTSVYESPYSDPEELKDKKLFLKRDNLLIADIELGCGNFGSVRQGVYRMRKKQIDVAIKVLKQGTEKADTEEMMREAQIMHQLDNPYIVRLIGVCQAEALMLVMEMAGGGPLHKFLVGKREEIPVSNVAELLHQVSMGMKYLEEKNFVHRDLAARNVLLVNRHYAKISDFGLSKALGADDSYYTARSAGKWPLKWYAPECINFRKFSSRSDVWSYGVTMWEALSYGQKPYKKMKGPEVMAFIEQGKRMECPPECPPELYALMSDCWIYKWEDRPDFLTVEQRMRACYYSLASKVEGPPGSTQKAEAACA
# In short: as §1
# [6] = molecular target: T6, Itk (Homo sapiens, UniProt Q08881); experiment: Kinase inhibition assay (33P transfer), Itk; settings: Table 3; read-out: Itk-1
# T6 construct: Kinases are expressed as either kinase domains or full length constructs; made in house
# T6 sequence (Q08881 1-620): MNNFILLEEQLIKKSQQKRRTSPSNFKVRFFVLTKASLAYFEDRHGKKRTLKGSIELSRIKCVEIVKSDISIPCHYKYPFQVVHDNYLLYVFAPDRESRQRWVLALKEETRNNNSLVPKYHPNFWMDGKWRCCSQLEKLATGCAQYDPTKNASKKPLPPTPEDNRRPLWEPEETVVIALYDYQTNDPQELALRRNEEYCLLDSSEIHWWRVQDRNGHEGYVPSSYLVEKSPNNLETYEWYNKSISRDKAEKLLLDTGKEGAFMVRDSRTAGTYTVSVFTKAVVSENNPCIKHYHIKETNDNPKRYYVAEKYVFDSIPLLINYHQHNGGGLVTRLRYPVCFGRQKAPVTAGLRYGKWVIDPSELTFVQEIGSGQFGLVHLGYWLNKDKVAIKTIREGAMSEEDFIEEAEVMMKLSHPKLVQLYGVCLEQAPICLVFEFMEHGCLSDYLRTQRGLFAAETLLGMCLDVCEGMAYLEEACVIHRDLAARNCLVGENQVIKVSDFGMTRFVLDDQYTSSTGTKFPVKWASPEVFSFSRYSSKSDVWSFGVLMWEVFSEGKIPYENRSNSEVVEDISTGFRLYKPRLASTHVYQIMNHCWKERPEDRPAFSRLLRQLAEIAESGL
# In short: (§5)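 Using immobilised substrate copolymers (poly(Glu,Tyr) 4:1; poly(Arg,Ser) 3:1) and [33P]ATP, purified fusion kinases were allowed to react; plates were then rinsed in 0.5% phosphoric acid and counted in a scintillation detector. Half-maximal inhibition of label transfer defines IC50.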
# [7] = molecular target: T7, EGFR (Homo sapiens, UniProt P00533); experiment: Kinase inhibition assay (33P transfer), EGFR; settings: Table 2, kinase inhibition class; read-out: EGFR-1
# T7 construct: Kinases are expressed as either kinase domains or full length constructs; made in house
# T7 sequence (P00533 25-1210, species assumed): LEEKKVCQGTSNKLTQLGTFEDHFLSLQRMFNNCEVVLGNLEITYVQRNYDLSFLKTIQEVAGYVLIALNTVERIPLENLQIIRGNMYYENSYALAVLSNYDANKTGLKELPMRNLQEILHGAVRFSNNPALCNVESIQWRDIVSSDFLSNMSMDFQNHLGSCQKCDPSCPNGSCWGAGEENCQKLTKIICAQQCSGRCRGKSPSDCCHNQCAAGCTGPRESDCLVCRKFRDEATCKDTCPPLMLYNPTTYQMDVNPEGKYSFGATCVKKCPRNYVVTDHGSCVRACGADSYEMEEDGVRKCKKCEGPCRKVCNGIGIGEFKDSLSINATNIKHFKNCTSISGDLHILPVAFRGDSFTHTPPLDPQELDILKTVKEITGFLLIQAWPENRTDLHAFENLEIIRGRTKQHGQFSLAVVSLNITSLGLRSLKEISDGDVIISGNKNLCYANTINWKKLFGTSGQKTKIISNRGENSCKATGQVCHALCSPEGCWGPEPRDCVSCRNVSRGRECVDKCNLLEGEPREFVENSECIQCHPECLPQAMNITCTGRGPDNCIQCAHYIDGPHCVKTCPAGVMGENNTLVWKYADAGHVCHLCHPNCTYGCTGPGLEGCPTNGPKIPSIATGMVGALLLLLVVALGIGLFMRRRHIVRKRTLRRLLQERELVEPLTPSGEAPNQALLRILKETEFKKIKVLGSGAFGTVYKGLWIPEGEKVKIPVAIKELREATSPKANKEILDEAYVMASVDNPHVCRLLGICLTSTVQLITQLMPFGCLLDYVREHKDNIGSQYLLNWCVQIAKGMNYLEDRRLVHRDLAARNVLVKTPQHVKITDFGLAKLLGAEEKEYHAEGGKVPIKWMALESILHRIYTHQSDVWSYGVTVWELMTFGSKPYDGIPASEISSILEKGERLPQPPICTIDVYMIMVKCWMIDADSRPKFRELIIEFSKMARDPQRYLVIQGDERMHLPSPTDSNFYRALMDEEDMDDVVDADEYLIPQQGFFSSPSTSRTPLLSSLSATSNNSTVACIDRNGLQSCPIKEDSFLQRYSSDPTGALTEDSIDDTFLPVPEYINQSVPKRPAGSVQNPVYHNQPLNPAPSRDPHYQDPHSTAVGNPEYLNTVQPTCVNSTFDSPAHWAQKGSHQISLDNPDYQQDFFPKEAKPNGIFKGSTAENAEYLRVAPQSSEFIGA
# In short: as §5
# [8] = molecular target: T8, ErbB2 (Homo sapiens, UniProt P04626); experiment: Kinase inhibition assay (33P transfer), ErbB2; settings: read-out: ErbB2-2
# T8 construct: Kinases are expressed as either kinase domains or full length constructs; made in house
# In short: as §5
# [9] = molecular target: T9, Kdr (Homo sapiens, UniProt P35968); experiment: Kinase inhibition assay (33P transfer), Kdr; settings: Table 3; read-out: KDR-1
# T9 construct: Kinases are expressed as either kinase domains or full length constructs; made in house
# In short: as §1
# [10] = molecular target: T10, Flt-1 (Homo sapiens, UniProt P17948); experiment: Kinase inhibition assay (33P transfer), Flt-1
# T10 construct: Kinases are expressed as either kinase domains or full length constructs; made in house
# From the text: as §2, §3, §4
# [11] = molecular target: T11, Tek (Homo sapiens, UniProt Q02763); experiment: Kinase inhibition assay (33P transfer), Tek; settings: read-out: Tek-1
# T11 construct: Kinases are expressed as either kinase domains or full length constructs; made in house
# T11 sequence (Q02763 23-1124, species assumed): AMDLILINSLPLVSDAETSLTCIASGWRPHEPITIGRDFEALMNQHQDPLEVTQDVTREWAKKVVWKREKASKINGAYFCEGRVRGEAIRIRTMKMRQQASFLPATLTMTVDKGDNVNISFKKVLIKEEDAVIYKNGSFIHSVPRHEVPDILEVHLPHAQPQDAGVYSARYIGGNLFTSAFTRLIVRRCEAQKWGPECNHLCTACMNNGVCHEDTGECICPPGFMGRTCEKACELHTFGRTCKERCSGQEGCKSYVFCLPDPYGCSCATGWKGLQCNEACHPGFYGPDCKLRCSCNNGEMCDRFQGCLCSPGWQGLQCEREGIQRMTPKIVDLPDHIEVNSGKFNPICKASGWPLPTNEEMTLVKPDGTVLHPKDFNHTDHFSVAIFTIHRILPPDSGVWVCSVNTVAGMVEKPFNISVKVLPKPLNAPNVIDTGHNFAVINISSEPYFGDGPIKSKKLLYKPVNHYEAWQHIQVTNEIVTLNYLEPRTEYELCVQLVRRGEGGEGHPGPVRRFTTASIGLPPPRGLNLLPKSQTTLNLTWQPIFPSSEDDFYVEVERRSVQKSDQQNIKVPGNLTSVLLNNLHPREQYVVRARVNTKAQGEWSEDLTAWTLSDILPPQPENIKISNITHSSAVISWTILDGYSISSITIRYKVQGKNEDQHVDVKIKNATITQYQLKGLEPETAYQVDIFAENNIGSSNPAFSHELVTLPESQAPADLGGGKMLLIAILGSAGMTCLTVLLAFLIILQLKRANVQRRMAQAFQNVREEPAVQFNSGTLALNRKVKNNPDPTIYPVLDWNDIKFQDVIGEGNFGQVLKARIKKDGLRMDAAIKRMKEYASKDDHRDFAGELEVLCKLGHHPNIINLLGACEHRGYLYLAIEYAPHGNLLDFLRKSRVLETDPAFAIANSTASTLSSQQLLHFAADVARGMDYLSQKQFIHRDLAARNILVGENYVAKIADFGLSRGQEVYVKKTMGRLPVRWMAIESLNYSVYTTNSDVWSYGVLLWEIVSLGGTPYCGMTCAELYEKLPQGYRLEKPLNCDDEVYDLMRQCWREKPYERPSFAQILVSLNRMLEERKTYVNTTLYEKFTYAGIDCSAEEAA
# In short: as §5
# [12] = molecular target: T12, c-Met (Homo sapiens, UniProt P08581); experiment: Kinase inhibition assay (33P transfer), c-Met; settings: Table 2, kinase inhibition class; read-out: Met-1
# T12 construct: Kinases are expressed as either kinase domains or full length constructs; made in house
# In short: as §5
# [13] = molecular target: T13, AKT (Homo sapiens, UniProt Q9Y243); experiment: Kinase inhibition assay (33P transfer), AKT; settings: Table 2, kinase inhibition class; read-out: AKT3-1
# T13 construct: Kinases are expressed as either kinase domains or full length constructs; made in house
# T13 sequence (Q9Y243 whole entry, the tested form may be a part): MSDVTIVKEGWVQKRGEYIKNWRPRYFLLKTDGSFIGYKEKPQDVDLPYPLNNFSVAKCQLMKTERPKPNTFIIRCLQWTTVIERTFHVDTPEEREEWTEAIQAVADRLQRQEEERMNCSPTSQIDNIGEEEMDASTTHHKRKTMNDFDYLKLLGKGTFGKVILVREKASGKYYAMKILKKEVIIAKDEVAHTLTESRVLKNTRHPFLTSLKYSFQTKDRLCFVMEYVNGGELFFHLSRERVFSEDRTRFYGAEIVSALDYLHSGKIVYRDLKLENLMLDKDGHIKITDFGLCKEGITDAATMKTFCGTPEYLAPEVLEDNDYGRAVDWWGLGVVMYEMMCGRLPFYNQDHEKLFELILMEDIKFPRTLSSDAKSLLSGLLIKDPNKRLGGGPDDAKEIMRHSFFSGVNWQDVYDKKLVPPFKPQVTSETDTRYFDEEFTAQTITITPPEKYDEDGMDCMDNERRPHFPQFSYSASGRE
# In short: as §1
# [14] = molecular target: T14, IGFR-1 (Homo sapiens, UniProt P08069); experiment: Kinase inhibition assay (33P transfer), IGFR-1; settings: Table 2, kinase inhibition class
# T14 construct: Kinases are expressed as either kinase domains or full length constructs; made in house
# [15] = molecular target: T15, PDGFRB (Homo sapiens, UniProt P09619); experiment: Kinase inhibition assay (33P transfer), PDGFRB; settings: read-out: PDGFRB-1
# T15 construct: Kinases are expressed as either kinase domains or full length constructs; made in house
# [16] = molecular target: T16, Hck-1 (Homo sapiens, UniProt P08631); experiment: Kinase inhibition assay (33P transfer), Hck; settings: Table 6, Hck-1 kinase inhibition class
# T16 construct: Kinases are expressed as either kinase domains or full length constructs; made in house
# [17] = molecular target: T17, ErbB4 (Homo sapiens, UniProt Q15303); experiment: Kinase inhibition assay (33P transfer), ErbB4; settings: read-out: ErbB4-1
# T17 construct: Kinases are expressed as either kinase domains or full length constructs; made in house
# [18] = molecular target: T18, FGFR1 (Homo sapiens, UniProt P11362); experiment: Kinase inhibition assay (33P transfer), FGFR1; settings: read-out: FGFR1-1
# T18 construct: Kinases are expressed as either kinase domains or full length constructs; made in house
# T1 sequence (P06239 whole entry, species assumed, the tested form may be a part): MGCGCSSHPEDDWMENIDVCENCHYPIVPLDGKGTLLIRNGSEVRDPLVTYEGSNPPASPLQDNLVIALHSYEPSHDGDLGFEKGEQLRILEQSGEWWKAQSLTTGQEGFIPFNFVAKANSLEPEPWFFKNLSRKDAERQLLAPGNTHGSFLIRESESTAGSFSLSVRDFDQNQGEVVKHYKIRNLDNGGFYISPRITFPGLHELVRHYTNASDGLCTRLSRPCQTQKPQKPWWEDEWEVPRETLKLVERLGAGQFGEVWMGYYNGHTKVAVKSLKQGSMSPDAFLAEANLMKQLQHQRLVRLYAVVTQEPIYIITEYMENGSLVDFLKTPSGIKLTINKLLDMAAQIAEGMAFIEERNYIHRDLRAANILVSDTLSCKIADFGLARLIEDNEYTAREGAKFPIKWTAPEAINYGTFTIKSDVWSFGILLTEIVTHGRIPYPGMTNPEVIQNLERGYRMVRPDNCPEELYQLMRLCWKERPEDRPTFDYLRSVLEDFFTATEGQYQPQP
Structure (SMILES),IC50 [1] [µM],IC50 [2] [µM],IC50 [3] [µM],IC50 [4] [µM],IC50 [5] [µM],IC50 [6] [µM],IC50 [7] [µM],IC50 [8] [µM],IC50 [9] [µM],IC50 [10] [µM],IC50 [11] [µM],IC50 [12] [µM],IC50 [13] [µM],IC50 [14] [µM],IC50 [15] [µM],IC50 [16] [µM],IC50 [17] [µM],IC50 [18] [µM]
COc1cc(Nc2ncnc(NC3CC3c3ccccc3)n2)cc(OC)c1OC (stereo not drawn) [Compound 428],< 1.02,< 1.02,1.02 to 6.1,1.02 to 6.1,> 11.4,> 11.4,< 1.02,1.02 to 6.1,6.1 to 8.9,> 11.4,> 11.4,> 11.4,> 11.4,1.02 to 6.1,1.02 to 6.1,> 11.4,1.02 to 6.1,6.1 to 8.9
NCc1ccc(Nc2ncnc(Nc3cc(-c4ccco4)n[nH]3)n2)cc1 [Compound 437],1.15 to 6.89,1.15 to 6.89,1.15 to 6.89,1.15 to 6.89,> 12.9,1.15 to 6.89,1.15 to 6.89,,< 1.15,1.15 to 6.89,6.89 to 10,1.15 to 6.89,> 12.9,,< 1.15,10 to 12.9,1.15 to 6.89,< 1.15
Nc1nc2ccccc2n1-c1ncnc(Nc2cccc(-c3cnco3)c2)n1 [Compound 439],1.08 to 6.48,1.08 to 6.48,1.08 to 6.48,1.08 to 6.48,6.48 to 9.45,1.08 to 6.48,1.08 to 6.48,,< 1.08,< 1.08,1.08 to 6.48,1.08 to 6.48,1.08 to 6.48,,< 1.08,1.08 to 6.48,1.08 to 6.48,< 1.08
CC(=O)NS(=O)(=O)c1ccc(Nc2ncnc(-n3c(N)nc4ccccc43)n2)cc1 [Compound 440],0.942 to 5.65,5.65 to 8.25,> 10.6,0.942 to 5.65,0.942 to 5.65,8.25 to 10.6,0.942 to 5.65,,0.942 to 5.65,0.942 to 5.65,5.65 to 8.25,0.942 to 5.65,> 10.6,,0.942 to 5.65,5.65 to 8.25,0.942 to 5.65,0.942 to 5.65
